Relative viability data for 8 cell lines are collected here from the supplement of paper PMC10307832.

Holding throughout (assay): relative viability (nuclei count vs DMSO), 5 days (fraction); higher = more cells survive
Compound in the assay “Pazopanib + Foretinib”: Cc1ccc(Nc2nccc(N(C)c3ccc4c(C)n(C)nc4c3)n2)cc1S(N)(=O)=O [Pazopanib] + COc1cc2c(Oc3ccc(NC(=O)C4(C(=O)Nc5ccc(F)cc5)CC4)cc3F)ccnc2cc1OCCCN1CCOCC1 [Foretinib] (partner 0.25 µM)
The essentials:
(§1)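 Dosing by pin tool came one day after lung cancer cell lines were seeded in 1536-well plates, using either one drug or a fixed anchor-drug dose plus five library-drug doses (not always all listed) in √10 steps. After 5 days, nuclei were counted on 4× images. Relative viability is treated-well nuclei count divided by vehicle-well nuclei count, and values are medians of duplicate plates.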

Compound in the assay “Ponatinib + Tozasertib”: Cc1ccc(C(=O)Nc2ccc(CN3CCN(C)CC3)c(C(F)(F)F)c2)cc1C#Cc1cnc2cccnn12 [Ponatinib] + Cc1cc(Nc2cc(N3CCN(C)CC3)nc(Sc3ccc(NC(=O)C4CC4)cc3)n2)n[nH]1 [Tozasertib] (partner 0.1 µM)
Put shortly: as §1

Compound in the assay “Pazopanib + Linsitinib”: Cc1ccc(Nc2nccc(N(C)c3ccc4c(C)n(C)nc4c3)n2)cc1S(N)(=O)=O [Pazopanib] + C[C@]1(O)C[C@@H](c2nc(-c3ccc4ccc(-c5ccccc5)nc4c3)c3c(N)nccn32)C1 [Linsitinib] (partner 1 µM)
The essentials:
as §1

Compound in the assay “Pazopanib + Bortezomib”: Cc1ccc(Nc2nccc(N(C)c3ccc4c(C)n(C)nc4c3)n2)cc1S(N)(=O)=O [Pazopanib] + CC(C)C[C@H](NC(=O)[C@H](Cc1ccccc1)NC(=O)c1cnccn1)B(O)O [Bortezomib] (partner 0.002 µM)
The essentials:
as §1

In the case of NCI-H520, the relative viability with Pazopanib + Foretinib (first compound 0.01 µM) is 0.675; in the assay with Pazopanib + Foretinib (first compound 0.03162 µM) it was 1.02; with Pazopanib + Foretinib (first compound 0.1 µM), 0.688; in the assay with Pazopanib + Foretinib (first compound 0.3162 µM), 0.799; with Pazopanib + Foretinib (first compound 1 µM), 0.936; with Ponatinib + Tozasertib (first compound 0.002 µM), 0.45. Besides, the relative viability with Ponatinib + Tozasertib (first compound 0.006325 µM) was 0.419; with Ponatinib + Tozasertib (first compound 0.06325 µM), 0.397; in the assay with Ponatinib + Tozasertib (first compound 0.2 µM), 0.372; in the assay with Pazopanib + Linsitinib (first compound 0.03162 µM) it was 1.05; in the assay with Pazopanib + Linsitinib (first compound 0.1 µM), 1; with Pazopanib + Linsitinib (first compound 0.3162 µM) it was 0.946. Also, the relative viability with Pazopanib + Linsitinib (first compound 1 µM) was 1.05; in the assay with Pazopanib + Bortezomib (first compound 0.03162 µM) it was 0.612; with Pazopanib + Bortezomib (first compound 0.1 µM), 0.73; with Pazopanib + Bortezomib (first compound 0.3162 µM), 0.744; with Pazopanib + Bortezomib (first compound 1 µM), 0.737.
In the case of NCI-H596, the relative viability is 0.723 in the assay with Pazopanib + Foretinib (first compound 0.03162 µM); 0.9 in the assay with Pazopanib + Foretinib (first compound 0.1 µM); 0.815 with Pazopanib + Foretinib (first compound 0.3162 µM); 0.84 in the assay with Pazopanib + Foretinib (first compound 1 µM); 0.914 with Ponatinib + Tozasertib (first compound 0.002 µM); 0.911 with Ponatinib + Tozasertib (first compound 0.006325 µM). Moreover, the relative viability was 0.734 with Ponatinib + Tozasertib (first compound 0.06325 µM); 0.743 with Ponatinib + Tozasertib (first compound 0.2 µM); 0.833 with Pazopanib + Linsitinib (first compound 0.01 µM); 1.12 in the assay with Pazopanib + Linsitinib (first compound 0.03162 µM); 1.24 in the assay with Pazopanib + Linsitinib (first compound 0.1 µM); 1.06 with Pazopanib + Linsitinib (first compound 0.3162 µM). In addition, the relative viability in the assay with Pazopanib + Linsitinib (first compound 1 µM) stood at 1.03; with Pazopanib + Bortezomib (first compound 0.01 µM), 0.872; with Pazopanib + Bortezomib (first compound 0.03162 µM), 1.14; with Pazopanib + Bortezomib (first compound 0.1 µM), 0.962; in the assay with Pazopanib + Bortezomib (first compound 0.3162 µM), 1.16; with Pazopanib + Bortezomib (first compound 1 µM), 1.02.
In the case of NCI-H647, the relative viability in the assay with Pazopanib + Foretinib (first compound 0.01 µM) was 1.13; with Pazopanib + Foretinib (first compound 0.03162 µM), 0.974; in the assay with Pazopanib + Foretinib (first compound 0.1 µM), 1.14; with Pazopanib + Foretinib (first compound 0.3162 µM) it was 0.925; with Pazopanib + Foretinib (first compound 1 µM) it was 0.854; with Ponatinib + Tozasertib (first compound 0.002 µM) it was 0.318. Moreover, the relative viability came to 0.224 with Ponatinib + Tozasertib (first compound 0.006325 µM); 0.288 with Ponatinib + Tozasertib (first compound 0.06325 µM); 0.259 with Ponatinib + Tozasertib (first compound 0.2 µM); 1.17 in the assay with Pazopanib + Linsitinib (first compound 0.01 µM); 1.4 in the assay with Pazopanib + Linsitinib (first compound 0.03162 µM); 1.17 with Pazopanib + Linsitinib (first compound 0.1 µM). Further, the relative viability in the assay with Pazopanib + Linsitinib (first compound 0.3162 µM) was determined as 1.23; with Pazopanib + Linsitinib (first compound 1 µM) it was 1.11; with Pazopanib + Bortezomib (first compound 0.01 µM), 0.822; with Pazopanib + Bortezomib (first compound 0.03162 µM) it was 0.93; with Pazopanib + Bortezomib (first compound 0.1 µM) it was 0.963; with Pazopanib + Bortezomib (first compound 0.3162 µM), 1.07. Moreover, the relative viability in the assay with Pazopanib + Bortezomib (first compound 1 µM) is 1.05.
Take NCI-H650: the relative viability is 1.02 in the assay with Pazopanib + Foretinib (first compound 0.01 µM); 1.11 with Pazopanib + Foretinib (first compound 0.03162 µM); 0.995 with Pazopanib + Foretinib (first compound 0.1 µM); 0.898 with Pazopanib + Foretinib (first compound 0.3162 µM); 0.818 with Pazopanib + Foretinib (first compound 1 µM); 0.685 with Ponatinib + Tozasertib (first compound 0.002 µM). Moreover, the relative viability with Ponatinib + Tozasertib (first compound 0.006325 µM) was determined as 0.707; with Ponatinib + Tozasertib (first compound 0.06325 µM) it was 0.712; with Ponatinib + Tozasertib (first compound 0.2 µM), 0.618; in the assay with Pazopanib + Linsitinib (first compound 0.01 µM) it was 0.738; in the assay with Pazopanib + Linsitinib (first compound 0.03162 µM), 1.1; in the assay with Pazopanib + Linsitinib (first compound 0.1 µM), 0.808. The relative viability with Pazopanib + Linsitinib (first compound 0.3162 µM) was 0.92; with Pazopanib + Linsitinib (first compound 1 µM), 0.839; with Pazopanib + Bortezomib (first compound 0.01 µM), 0.696; with Pazopanib + Bortezomib (first compound 0.03162 µM) it was 0.861; in the assay with Pazopanib + Bortezomib (first compound 0.1 µM), 0.804; in the assay with Pazopanib + Bortezomib (first compound 0.3162 µM), 0.935. Moreover, in the assay with Pazopanib + Bortezomib (first compound 1 µM), the relative viability was found to be 0.812.
On to NCI-H661, for which the relative viability amounted to 0.996 with Pazopanib + Foretinib (first compound 0.01 µM); 1.08 with Pazopanib + Foretinib (first compound 0.03162 µM); 1.04 with Pazopanib + Foretinib (first compound 0.1 µM); 1 in the assay with Pazopanib + Foretinib (first compound 0.3162 µM); 0.995 in the assay with Pazopanib + Foretinib (first compound 1 µM); 0.36 with Ponatinib + Tozasertib (first compound 0.002 µM). In addition, the relative viability in the assay with Ponatinib + Tozasertib (first compound 0.006325 µM) is 0.345; with Ponatinib + Tozasertib (first compound 0.06325 µM), 0.351; with Ponatinib + Tozasertib (first compound 0.2 µM), 0.368; in the assay with Pazopanib + Linsitinib (first compound 0.01 µM) it was 0.44; with Pazopanib + Linsitinib (first compound 0.03162 µM) it was 0.637; in the assay with Pazopanib + Linsitinib (first compound 0.1 µM), 0.581. In addition, the relative viability worked out at 0.541 with Pazopanib + Linsitinib (first compound 0.3162 µM); 0.672 with Pazopanib + Linsitinib (first compound 1 µM); 0.823 with Pazopanib + Bortezomib (first compound 0.01 µM); 0.853 in the assay with Pazopanib + Bortezomib (first compound 0.03162 µM); 0.786 with Pazopanib + Bortezomib (first compound 0.1 µM); 0.631 with Pazopanib + Bortezomib (first compound 0.3162 µM). Also, the relative viability in the assay with Pazopanib + Bortezomib (first compound 1 µM) came to 0.873.
For the cell line NCI-H727, the relative viability in the assay with Pazopanib + Foretinib (first compound 0.01 µM) was 0.698; with Pazopanib + Foretinib (first compound 0.03162 µM), 0.981; with Pazopanib + Foretinib (first compound 0.1 µM), 1.04; with Pazopanib + Foretinib (first compound 0.3162 µM) it was 1.23; with Pazopanib + Foretinib (first compound 1 µM) it was 0.913; with Ponatinib + Tozasertib (first compound 0.002 µM), 0.607. Further, the relative viability with Ponatinib + Tozasertib (first compound 0.006325 µM) was found to be 0.593; with Ponatinib + Tozasertib (first compound 0.06325 µM), 0.531; with Ponatinib + Tozasertib (first compound 0.2 µM), 0.669; with Pazopanib + Linsitinib (first compound 0.01 µM), 0.311; with Pazopanib + Linsitinib (first compound 0.03162 µM), 0.336; with Pazopanib + Linsitinib (first compound 0.1 µM) it was 0.35. In addition, the relative viability with Pazopanib + Linsitinib (first compound 0.3162 µM) amounted to 0.237; in the assay with Pazopanib + Linsitinib (first compound 1 µM), 0.245; with Pazopanib + Bortezomib (first compound 0.01 µM), 0.791; with Pazopanib + Bortezomib (first compound 0.03162 µM), 0.938; with Pazopanib + Bortezomib (first compound 0.1 µM), 0.98; in the assay with Pazopanib + Bortezomib (first compound 0.3162 µM) it was 0.928. Moreover, in the assay with Pazopanib + Bortezomib (first compound 1 µM), the relative viability came out at 1.11.
Regarding NCI-H838, the relative viability with Pazopanib + Foretinib (first compound 0.01 µM) stood at 0.996; with Pazopanib + Foretinib (first compound 0.03162 µM), 1.02; with Pazopanib + Foretinib (first compound 0.1 µM) it was 1.02; with Pazopanib + Foretinib (first compound 0.3162 µM) it was 1.08; with Pazopanib + Foretinib (first compound 1 µM), 1.18; with Ponatinib + Tozasertib (first compound 0.002 µM) it was 0.275. Besides, the relative viability in the assay with Ponatinib + Tozasertib (first compound 0.006325 µM) is 0.271; in the assay with Ponatinib + Tozasertib (first compound 0.06325 µM), 0.286; in the assay with Ponatinib + Tozasertib (first compound 0.2 µM) it was 0.256; with Pazopanib + Linsitinib (first compound 0.01 µM), 1.01; in the assay with Pazopanib + Linsitinib (first compound 0.03162 µM), 1.05; in the assay with Pazopanib + Linsitinib (first compound 0.1 µM) it was 1.01. The relative viability with Pazopanib + Linsitinib (first compound 0.3162 µM) stood at 1.18; in the assay with Pazopanib + Linsitinib (first compound 1 µM) it was 1.19; in the assay with Pazopanib + Bortezomib (first compound 0.01 µM) it was 0.898; with Pazopanib + Bortezomib (first compound 0.03162 µM) it was 0.883; with Pazopanib + Bortezomib (first compound 0.1 µM), 0.927; in the assay with Pazopanib + Bortezomib (first compound 0.3162 µM) it was 0.87. Further, the relative viability with Pazopanib + Bortezomib (first compound 1 µM) stood at 1.2.
Consider NCI-H1355, for which the relative viability in the assay with Pazopanib + Foretinib (first compound 0.01 µM) was 0.804; with Pazopanib + Foretinib (first compound 0.03162 µM) it was 1; with Pazopanib + Foretinib (first compound 0.1 µM), 1.08; with Pazopanib + Foretinib (first compound 0.3162 µM) it was 0.979; in the assay with Pazopanib + Foretinib (first compound 1 µM), 1; in the assay with Ponatinib + Tozasertib (first compound 0.002 µM), 0.566. Besides, the relative viability with Ponatinib + Tozasertib (first compound 0.006325 µM) was found to be 0.542; in the assay with Ponatinib + Tozasertib (first compound 0.06325 µM) it was 0.582; with Ponatinib + Tozasertib (first compound 0.2 µM), 0.455; with Pazopanib + Linsitinib (first compound 0.03162 µM) it was 0.909; with Pazopanib + Linsitinib (first compound 0.1 µM), 0.921; with Pazopanib + Linsitinib (first compound 0.3162 µM) it was 0.856. The relative viability was found to be 0.861 with Pazopanib + Linsitinib (first compound 1 µM); 1.17 with Pazopanib + Bortezomib (first compound 0.03162 µM); 1.21 with Pazopanib + Bortezomib (first compound 0.1 µM); 1.21 with Pazopanib + Bortezomib (first compound 0.3162 µM); 1.35 in the assay with Pazopanib + Bortezomib (first compound 1 µM).
